# Values quoted from earlier work, collected in patent publication US20190359769A1, “PHARMACEUTICAL AGENT FOR IRON CHELATING” (Johannes Gutenberg-Universität Mainz, priority 2017, published 2019).
# Tests used:
# [1] = in vivo
# [2] = Fe^3+ complex
# [3] = one study
# [4] = studies on rats and humans
smiles,measurement,setting,value
"CC(=O)N(O)CCCCCNC(=O)CCC(=O)N(O)CCCCCNC(=O)CCC(=O)N(O)CCCCCN [DFO, Deferoxamine]",plasma half-life,[1],about 5 minutes
same,logarithmic stability constant of iron complexes,[2],30
"Cc1c(O)c(=O)ccn1C [DFP, Deferiprone]",proportion of the DFP dose administered found in the urine in the form of inactive 3-O-glucoronide conjugates,[3],85%
"O=C(O)c1ccc(-n2nc(-c3ccccc3O)nc2-c2ccccc2O)cc1 [DFX, Deferasirox]",physiological half-life,[4],8-16 h
